Test results reported in patent US12570536B2, “Ammonia synthesis methods and systems” (President and Fellows of Harvard College, priority 2016, dated 2026).

Columns and labels:
nitrogenase = conditions: competitive inhibition of nitrogenase; cited from earlier work
X. autotrophicus = assay: Extracellular NH3 production by the CoPi|Co-P|X. autotrophicus hybrid device after addition of a GS inhibitor; assay type: cell-based, Xanthobacter autotrophicus
Source text: A reactor used in the experiments included a biocompatible water splitting catalyst system including a cobalt-phosphorous (Co—P) alloy cathode for the hydrogen evolution reaction (HER) and a cobalt phosphate (CoPi) anode for the oxygen evolution reaction (OER). This system enabled the use of a low driving voltage (Eappl) while producing the desired hydrogen for use in producing ammonia. Specifically, NH3 synthesis from N2 and H2O was accomplished using the water splitting system and driving the N2 reduction reaction within H2-oxidizing, autotrophic microorganisms. In this case, Xanthobacter autotrophicus (X. autotrophicus) was used. X. autotrophicus is a gram-negative bacterium that belongs to a small group of diazotrophs, which at micro-aerobic condition (less than about 5% O2) can use H2 as their sole energy source to fix CO2 and N2 into biomass. Therefore, in this experimental setup, electrochemical water splitting generated H2 as the biological energy source and in the same reactor X. autotrophicus acted as the room-temperature N2 reduction reaction catalyst to convert H2 and N2 into NH3.
The electrodes included a Co—P cathode for the hydrogen evolution reaction and a CoPi anode for the oxygen evolution reaction. A gas mixture including 2% O2, 20% CO2, and 78% N2 was bubbled through the solution at a flow rate of greater than or equal to 5 mL/min to maintain a micro-aerobic environment.
At the beginning of each experiment, X. autotrophicus was inoculated into the organic-free minimal medium without any nitrogen supplement. A constant driving voltage (Eappl=3.0 V) was applied to the CoPi|Co—P catalyst system, and aliquots were periodically sampled for the quantification of biomass (optical density at 600 nm, OD600) as well as fixed nitrogen (colorimetric assay).
The hybrid device is capable of excreting synthesized NH3 into an extracellular medium. Previous biochemical assays and genome sequencing on this strain indicate that the NH3 generated from nitrogenase is incorporated into biomass via a two-step process mediated by glutamine synthetase (GS) and glutamate synthase (GOGAT) (FIGS. 1 and 5). If the functionality of this NH3 assimilation pathway is disrupted, direct production of an extracellular NH3 fertilizer solution is realized. It has been reported that GS inhibitors can be used for NH3 secretion in sugar-fementating diazotrophs. As a proof of principle, glufosinate (PPT), a specific GS inhibitor commercially used as herbicide, was used to block the NH3 assimilation pathway and allow the synthesized NH3 to passively diffuse out into the extracellular medium (pathway 2 in FIG. 1, and FIG. 5). After the addition of PPT, the biomass of X. autotrophicus stagnated, while Ntotal and the concentration of free NH3 in the solution (NNH3) increased (FIG. 6). […]

[1] = end of experiments, after PPT addition, n=3

| SMILES | inhibition constant Kis(D2) (nitrogenase) | biomass of X. autotrophicus after addition (X. autotrophicus; after the addition of PPT, FIG. 6) | concentration of free NH3 in the solution (NNH3) (X. autotrophicus; end of experiments, after PPT addition) | accumulated Ntotal (X. autotrophicus; [1]) | concentration of free NH3 in the solution (NNH3) (X. autotrophicus; [1]) |
| --- | --- | --- | --- | --- | --- |
| [HH] [H2] | ~11 kPa |  |  |  |  |
| CP(=O)(O)CCC(N)C(=O)O (centres unmarked) [PPT, glufosinate] |  | stagnated | ~0.8 mM | 47 ± 3 mg/L | 11 ± 2 mg/L |
